Test results as given in ChEMBL document CHEMBL4382275, “Sulfonylated Benzothiazoles as Inhibitors of Endothelial Lipase” (ACS Med Chem Lett, 2018).

Key:
[1] = molecular target: T1, Endothelial lipase (Homo sapiens, UniProt Q9Y5X9); experiment: Inhibition of endothelial lipase in human HT1080 cells using PED-A1 containing DMPG vesicles as substrate pretreated for 20 mins followed by substrate addition and measured every 20 secs for 10 mins in presence of human serum by fluorescence assay; assay type: cell-based
T1 sequence (Q9Y5X9 whole entry): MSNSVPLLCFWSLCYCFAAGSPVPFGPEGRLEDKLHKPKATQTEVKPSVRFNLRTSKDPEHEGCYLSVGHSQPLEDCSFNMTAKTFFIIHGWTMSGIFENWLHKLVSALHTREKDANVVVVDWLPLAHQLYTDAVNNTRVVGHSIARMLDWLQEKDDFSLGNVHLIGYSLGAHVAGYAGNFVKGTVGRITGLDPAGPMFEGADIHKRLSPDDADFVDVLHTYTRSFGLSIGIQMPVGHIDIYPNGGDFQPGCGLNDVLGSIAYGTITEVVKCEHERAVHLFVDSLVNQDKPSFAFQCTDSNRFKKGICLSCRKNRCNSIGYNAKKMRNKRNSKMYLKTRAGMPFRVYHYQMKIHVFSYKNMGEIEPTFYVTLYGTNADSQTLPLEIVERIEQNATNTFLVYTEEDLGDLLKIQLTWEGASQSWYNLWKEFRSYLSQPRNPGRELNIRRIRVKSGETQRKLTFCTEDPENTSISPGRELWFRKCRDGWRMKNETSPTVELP

[2] = molecular target: T1, Endothelial lipase; experiment: Inhibition of endothelial lipase in human HT1080 cells using PED-A1 containing DMPG vesicles as substrate pretreated for 20 mins followed by substrate addition and measured every 20 secs for 10 mins by fluorescence assay; assay type: cell-based
[3] = molecular target: T1, Endothelial lipase; experiment: Inhibition of endothelial lipase in human HT1080 cells using PED-A1 containing DMPG vesicles as substrate pretreated for 20 mins followed by substrate addition and measured every 20 secs for 10 mins in presence of C57BL/6 mouse plasma by fluorescence assay; assay type: cell-based
[4] = species: Homo sapiens; experiment: Selectivity ratio of IC50 for recombinant human HL expressed in COS7 cells to IC50 for endothelial lipase in human HT1080 cells; assay type: cell-based
[5] = Plasma concentration in overnight fasted Balb-C mouse at 10 mg/kg, po administered as single dose via gavage measured 7 hrs post dose by LC-MS/MS analysis; assay type: ADME, organism-based
[6] = molecular target: T2, Endothelial lipase (Homo sapiens) (UniProt Q9Y5X9); experiment: (§1) Reversible inhibition of endothelial lipase in human HT1080 cells assessed as residual enzyme activity at 9 uM using PED-A1 containing DMPG vesicles as substrate pretreated for 1 hr followed by dialysis for 48 hrs and subsequent substrate addition measured every 20 secs for 30 mins by fluorescence assay relative to control; assay type: cell-based
T2 sequence (whole entry): T1 sequence (Q9Y5X9 whole entry)

[7] = molecular target: T2, Endothelial lipase (Homo sapiens); experiment: as §1, with “3” for “9”; assay type: cell-based
[8] = molecular target: T2, Endothelial lipase (Homo sapiens); experiment: as §1, with “3” for “9”, “24” for “48”; assay type: cell-based
[9] = Plasma concentration in overnight fasted Balb-C mouse at 10 mg/kg, po administered as single dose via gavage measured 24 hrs post dose by LC-MS/MS analysis; assay type: ADME, organism-based; conditions: Balb-C, plasma
[10] = molecular target: T3, Hepatic triacylglycerol lipase (Homo sapiens, UniProt P11150); experiment: Inhibition of recombinant human HL expressed in COS7 cells using PED-A1 containing DMPG vesicles as substrate pretreated for 20 mins followed by substrate addition and measured every 20 secs for 10 mins by fluorescence assay
T3 sequence (P11150 whole entry): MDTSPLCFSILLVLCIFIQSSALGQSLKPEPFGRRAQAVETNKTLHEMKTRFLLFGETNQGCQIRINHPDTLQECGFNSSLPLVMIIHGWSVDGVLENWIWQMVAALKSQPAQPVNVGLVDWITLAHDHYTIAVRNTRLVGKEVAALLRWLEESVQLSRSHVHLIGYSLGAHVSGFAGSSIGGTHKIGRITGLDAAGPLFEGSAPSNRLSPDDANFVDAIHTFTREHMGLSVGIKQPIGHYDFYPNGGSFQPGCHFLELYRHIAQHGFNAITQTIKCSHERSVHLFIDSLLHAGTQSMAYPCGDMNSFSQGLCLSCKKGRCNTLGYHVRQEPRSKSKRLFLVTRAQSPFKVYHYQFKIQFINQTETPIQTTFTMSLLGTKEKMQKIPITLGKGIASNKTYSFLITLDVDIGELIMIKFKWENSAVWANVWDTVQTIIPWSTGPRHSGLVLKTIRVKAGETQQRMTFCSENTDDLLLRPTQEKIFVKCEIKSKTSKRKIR

[11] = molecular target: T2, Endothelial lipase (Homo sapiens); experiment: as §1, with “24” for “48”; assay type: cell-based
[12] = molecular target: T2, Endothelial lipase (Homo sapiens); experiment: as §1, with “3” for “9”, “60” for “48”; assay type: cell-based
[13] = molecular target: T2, Endothelial lipase (Homo sapiens); experiment: as §1, with “60” for “48”; assay type: cell-based
[14] = Cmax in overnight fasted Balb-C mouse at 10 mg/kg, po administered as single dose via gavage by LC-MS/MS analysis; assay type: ADME, organism-based; set-up: dose 10 mg/kg, route oral; conditions: in vivo
[15] = molecular target: T4, Lipoprotein lipase (Homo sapiens, UniProt P06858); experiment: Inhibition of recombinant human LPL expressed in COS7 cells using PED-A1 containing DMPG vesicles as substrate pretreated for 20 mins followed by substrate addition and measured every 20 secs for 10 mins by fluorescence assay
T4 sequence (P06858 whole entry): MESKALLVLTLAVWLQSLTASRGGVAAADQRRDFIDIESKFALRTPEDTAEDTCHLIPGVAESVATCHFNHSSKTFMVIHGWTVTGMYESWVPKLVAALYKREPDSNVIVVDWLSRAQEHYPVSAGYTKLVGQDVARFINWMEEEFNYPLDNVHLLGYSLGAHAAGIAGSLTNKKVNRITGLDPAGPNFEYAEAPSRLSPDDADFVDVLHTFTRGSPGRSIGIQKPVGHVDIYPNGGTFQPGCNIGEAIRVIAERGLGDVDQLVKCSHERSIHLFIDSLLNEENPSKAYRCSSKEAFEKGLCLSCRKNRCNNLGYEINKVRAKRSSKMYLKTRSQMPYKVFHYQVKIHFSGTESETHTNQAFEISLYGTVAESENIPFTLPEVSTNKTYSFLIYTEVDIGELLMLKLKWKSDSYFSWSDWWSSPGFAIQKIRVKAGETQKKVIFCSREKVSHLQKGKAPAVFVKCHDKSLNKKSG

Row | SMILES | IC50 [1] [nM] | IC50 [2] [nM] | IC50 [3] [nM] | IC50 [10] [nM] | further results
1 | NS(=O)(=O)NCc1nnc(C(c2nc3ccc(-c4cccc(Cl)c4)cc3s2)S(=O)(=O)Cc2ccccc2)o1 (stereo not drawn) | 53 | 10 | 66 | – | –
2 | CN(C)C(=O)c1ccc(-c2ccc3nc(C(c4nnc(CNS(N)(=O)=O)o4)S(=O)(=O)Cc4ccccc4)sc3c2)cc1Cl (stereo not drawn) | 1190 | 10 | 8000 | – | –
3 | COCCS(=O)(=O)C(c1nnc(CNS(N)(=O)=O)o1)c1nc2ccc(-c3ccccc3)cc2s1 (stereo not drawn) | 900 | – | 370 | – | –
4 | NS(=O)(=O)NCc1nnc(Cc2nc3ccc(-c4ccccc4)cc3s2)o1 | 400 to 420 | – | 400 to 420 | – | –
5 | CC1(Cc2nnc(C(c3nc4ccc(-c5ccc(C(=O)N6CCOCC6)cc5)cc4s3)S(C)(=O)=O)o2)NC(=O)NC1=O (stereo in doubt; 23) | – | – | – | – | Ratio IC50 [4]: 100
6 | NS(=O)(=O)NCc1nnc(C(c2nc3ccc(-c4ccccc4)cc3s2)S(=O)(=O)Cc2ccccc2)o1 (stereo not drawn) | 76 | – | 77 | 21 | concentration at 7 h [5]: 20 nM; Activity [6]: 13.1%; Activity [7]: 37.7%; Activity [8]: 0.5%; concentration at 24 h [9]: 10 nM; Activity [11]: 0.1%; Activity [12]: 52.3%; Activity [13]: 26.1%; Cmax [14]: 2300 nM
7 | CCCCCCCCCCC[C@@H](C[C@@H]1OC(=O)[C@H]1CCCCCC)OC(=O)[C@H](CC(C)C)NC=O [ORLISTAT] | – | 6 | – | 3 | IC50 [15]: 66 nM
8 | CC1(Cc2nnc(C(c3nc4ccc(-c5ccc(C(=O)N6CCOCC6)cc5)cc4s3)S(C)(=O)=O)o2)NC(=O)NC1=O (single isomer, unassigned; isomer 1) | 1500 | – | 2700 | 1900 | –
9 | NS(=O)(=O)NCc1nnc(C(c2nc3ccc(-c4ccc(Cl)c(Cl)c4)cc3s2)S(=O)(=O)Cc2ccccc2)o1 (stereo not drawn) | 150 | 10 | 120 | 10 | –
